Test results taken from patent US20170253562A1, “Nampt Inhibitors” (AbbVie Inc., priority 2011, published 2017).

Biological target: recombinant, human, C-terminally-His tagged NAMPT (Homo sapiens, UniProt P43490)
Assay: Time-Resolved Fluorescence Resonance Energy Transfer (TR-FRET) binding assay of NAMPT
Settings: 6.8 nM NAMPT, 200 nM probe (Oregon Green 488-conjugated APO866), 2-3 hours
Method: Time-Resolved Fluorescence Resonance Energy Transfer (TR-FRET) Binding Assay of NAMPT
Plates were read with Envision (Laser Lantha low volume protocol) after 2 to 3 hours.

recombinant, human, C-terminally-His tagged NAMPT, sequence (P43490 whole entry): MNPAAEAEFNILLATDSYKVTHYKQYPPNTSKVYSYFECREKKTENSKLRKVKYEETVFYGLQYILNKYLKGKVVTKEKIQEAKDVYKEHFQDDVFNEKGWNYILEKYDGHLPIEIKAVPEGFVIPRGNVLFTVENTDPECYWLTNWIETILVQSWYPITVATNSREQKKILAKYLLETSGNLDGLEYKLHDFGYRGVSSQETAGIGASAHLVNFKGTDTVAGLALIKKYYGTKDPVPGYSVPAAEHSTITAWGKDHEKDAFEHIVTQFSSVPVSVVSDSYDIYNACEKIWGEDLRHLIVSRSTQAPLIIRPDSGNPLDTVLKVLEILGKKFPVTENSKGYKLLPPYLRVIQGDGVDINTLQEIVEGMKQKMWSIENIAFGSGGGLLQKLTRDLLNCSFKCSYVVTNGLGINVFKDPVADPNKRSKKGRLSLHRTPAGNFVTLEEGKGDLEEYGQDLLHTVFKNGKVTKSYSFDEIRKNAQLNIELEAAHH

Compound | IC50 [nM]
O=C(NCC1CCC2(CCNCC2)CO1)c1ccc(NC(=O)N2Cc3ccccc3C2)nn1 (stereo not shown) [Example 31, N-{6-[(2-oxa-9-azaspiro[5.5]undec-3-ylmethyl)carbamoyl]pyridazin-3-yl}-1,3-dihydro-2H-isoindole-2-carboxamide] | 253
O=C(NCC1CCC2(CCNCC2)O1)c1ccc(NC(=O)N2Cc3ccccc3C2)nn1 (stereo not shown) [Example 32, N-{6-[(1-oxa-8-azaspiro[4.5]dec-2-ylmethyl)carbamoyl]pyridazin-3-yl}-1,3-dihydro-2H-isoindole-2-carboxamide] | 782
O=C(NCC1COC2(CCNCC2)C1)c1ccc(NC(=O)N2Cc3ccccc3C2)nn1 (stereo not shown) [Example 33, N-{6-[(1-oxa-8-azaspiro[4.5]dec-3-ylmethyl)carbamoyl]pyridazin-3-yl}-1,3-dihydro-2H-isoindole-2-carboxamide] | 284
O=C(Nc1ccc(C(=O)N2CCC3(CC2)CNC3)nn1)N1Cc2ccccc2C1 [Example 34, N-[6-(2,7-diazaspiro[3.5]non-7-ylcarbonyl)pyridazin-3-yl]-1,3-dihydro-2H-isoindole-2-carboxamide] | 218
O=C(Nc1ccc(C(=O)N2CCC3(CCNCC3)C2)nn1)N1Cc2ccccc2C1 [Example 35, N-[6-(2,8-diazaspiro[4.5]dec-2-ylcarbonyl)pyridazin-3-yl]-1,3-dihydro-2H-isoindole-2-carboxamide] | 404
O=C(Nc1ccc(C(=O)N2CCC(C3CNC3)C2)nn1)N1Cc2ccccc2C1 (stereo not shown) [Example 36, N-(6-{[3-(azetidin-3-yl)pyrrolidin-1-yl]carbonyl}pyridazin-3-yl)-1,3-dihydro-2H-isoindole-2-carboxamide] | 791
O=C(NCc1nc2c([nH]1)CNCC2)c1ccc(NC(=O)N2Cc3ccccc3C2)nn1 [Example 37, N-{6-[(4,5,6,7-tetrahydro-3H-imidazo[4,5-c]pyridin-2-ylmethyl)carbamoyl]pyridazin-3-yl}-1,3-dihydro-2H-isoindole-2-carboxamide] | 934
O=C(NC1COC2(CCNCC2)C1)c1ccc(NC(=O)N2Cc3ccccc3C2)nn1 (stereo not shown) [Example 38, N-[6-(1-oxa-8-azaspiro[4.5]dec-3-ylcarbamoyl)pyridazin-3-yl]-1,3-dihydro-2H-isoindole-2-carboxamide] | 869
O=C(NCc1nnc2n1CCCNC2)c1ccc(NC(=O)N2Cc3ccccc3C2)nn1 [Example 39, N-{6-[(6,7,8,9-tetrahydro-5H-[1,2,4]triazolo[4,3-a][1,4]diazepin-3-ylmethyl)carbamoyl]pyridazin-3-yl}-1,3-dihydro-2H-isoindole-2-carboxamide] | 3260
O=C(NCC1CC12CCNCC2)c1ccc(NC(=O)N2Cc3ccccc3C2)nn1 (stereo not shown) [Example 40, N-{6-[(6-azaspiro[2.5]oct-1-ylmethyl)carbamoyl]pyridazin-3-yl}-1,3-dihydro-2H-isoindole-2-carboxamide] | 648
O=C(Nc1ccc(C(=O)N2CC3(CCCO3)C2)nn1)N1Cc2ccccc2C1 [Example 41, N-[6-(5-oxa-2-azaspiro[3.4]oct-2-ylcarbonyl)pyridazin-3-yl]-1,3-dihydro-2H-isoindole-2-carboxamide] | 344
O=C(NCc1nnc2n1CCNC2)c1ccc(NC(=O)N2Cc3ccccc3C2)nn1 [Example 42, N-{6-[(5,6,7,8-tetrahydro[1,2,4]triazolo[4,3-a]pyrazin-3-ylmethyl)carbamoyl]pyridazin-3-yl}-1,3-dihydro-2H-isoindole-2-carboxamide] | 1970
O=C(NCC1(F)CCNCC1)c1ccc(NC(=O)N2Cc3ccccc3C2)nn1 [Example 43, N-(6-{[(4-fluoropiperidin-4-yl)methyl]carbamoyl}pyridazin-3-yl)-1,3-dihydro-2H-isoindole-2-carboxamide] | 2880
O=C(Nc1ccc(C(=O)N2CC3(CNC3)C2)nn1)N1Cc2ccccc2C1 [Example 44, N-[6-(2,6-diazaspiro[3.3]hept-2-ylcarbonyl)pyridazin-3-yl]-1,3-dihydro-2H-isoindole-2-carboxamide] | 10000
O=C(NCC1CC2(CNC2)CO1)c1ccc(NC(=O)N2Cc3ccccc3C2)nn1 (stereo not shown) [Example 45, N-{6-[(6-oxa-2-azaspiro[3.4]oct-7-ylmethyl)carbamoyl]pyridazin-3-yl}-1,3-dihydro-2H-isoindole-2-carboxamide] | 2140
O=C(Nc1ccc(C(=O)N2CC3(CCCCO3)C2)nn1)N1Cc2ccccc2C1 [Example 46, N-[6-(5-oxa-2-azaspiro[3.5]non-2-ylcarbonyl)pyridazin-3-yl]-1,3-dihydro-2H-isoindole-2-carboxamide] | 261
O=C(Nc1ccc(C(=O)N2CCC3(CCNCC3)C2C(F)(F)F)nn1)N1Cc2ccccc2C1 (stereo not shown) [Example 47, N-(6-{[1-(trifluoromethyl)-2,8-diazaspiro[4.5]dec-2-yl]carbonyl}pyridazin-3-yl)-1,3-dihydro-2H-isoindole-2-carboxamide] | 5850
O=C(NCC1CC2(CCNCC2)C1)c1ccc(NC(=O)N2Cc3ccccc3C2)nn1 [Example 48, N-{6-[(7-azaspiro[3.5]non-2-ylmethyl)carbamoyl]pyridazin-3-yl}-1,3-dihydro-2H-isoindole-2-carboxamide] | 68.9
O=C(NCc1nnn2c1CNCCC2)c1ccc(NC(=O)N2Cc3ccccc3C2)nn1 [Example 49, N-{6-[(5,6,7,8-tetrahydro-4H-[1,2,3]triazolo[1,5-a][1,4]diazepin-3-ylmethyl)carbamoyl]pyridazin-3-yl}-1,3-dihydro-2H-isoindole-2-carboxamide] | 4700
